Source: patent publication US6649797B2, “Compounds and methods of use to treat infectious diseases” (The Picower Institute for Medical Research, priority 1996, dated 2003)

Columns and labels:
[1] = system: HIV-1ADA; experiment: HIV-1ADA production in mitogen-stimulated peripheral blood leukocytes (FIG. 3); assay type: cell-based
Procedure: FIG. 3. The effect of various concentrations of Compound No. 2 on RT activity in the supernatant of HIV-1-infected mitogen-stimulated peripheral blood leukocytes at infected at 10 and 1.0 ng p24/[…], FIGS. 3A and 3B, respectively.
PBMCs were purified by Ficoll-Hypaque centrifugation and activated by 10 μg/ml PHA-P (Sigma) and 20 U/ml recombinant human IL-2 (rhIL-2) in RPMI 1640 supplemented with 10% FBS (HyClone). After 24 h incubation, cells were washed and inoculated with HIV-1ADA in RPMI 1640 supplemented with 10% FBS. After a 2 h adsorption, free virus was washed away and cells were cultured in RPMI 1640 supplemented with 10% FBS and 20 U/ml rhIL-2.
For the reverse transcriptase (RT) assay, 10 μl of culture supernatant was added to 40 μl of reaction mixture (final composition was 50 mM Tris-HCl, pH 7.8; 20 MM KCl; 5 MM MgCl2; 1 mM DTT; 0.1% Triton X-100; 0.2 OD/ml polyA; 0.2 OD/ml oligo(dT)12-18; and 40 μCi/ml ^3H-dTTP (76 Ci/mmol, DuPont) and incubated 2 hr at 37° C. 5 μl of the reaction mixture was then spotted onto the DE 81 (Whatman) paper. Paper was air dried and washed 5 times with 5% Na2HPO4, followed by rinsing with distilled water. After air drying, paper was put on a Flexi Filter plate (Packard), covered with scintillation fluid and counted in a Top Count Microplate Counter (Packard). Results are expressed as counts per minute in 1 ml of supernatant (cpm/ml).

[2] = system: HIV-1ADA; experiment: HIV-1ADA replication in purified monocytes, RT activity in supernatant (FIG. 2); assay type: cell-based; details: Human immunodeficiency virus 1, Monocyte, monocytes without M-CSF
Procedure: FIGS. 2A-C. The effect of various concentrations of Compound No. 2 on RT activity in the supernatant of HIV-1-infected monocytes. FIG. 2A: Multiplicity of Infection (MOI) 1 ng p24/10^6 monocytes, culture d in presence of M-CSF. FIG. 2B: MOI 8 ng p24/10^6 monocytes, cultured in absence of M-CSF. FIG. 2C: MOI 0.8 ng p24/10^6 monocytes, cultured in absence of M-CSF.
The cultures were treated with none or between 10^−12 and 10^−6 M Compound No. 2 and, simultaneously with the beginning of treatment, the cells were exposed to the monocyte-tropic strain HIV-1ADA at about 0.01 TCID50/cell (1 ng p24/10^6 cells) for 2 hours. Samples were withdrawn at days 3, 6, 10, 14 and 17 after infection and assayed for reverse transcription activity.
FIGS. 2B and 2C show the effects of various concentrations of Compound No. 2 on the production of HIV-1 in monocyte cultures not supplemented with M-CSF. In these studies MOI, as determined by concentration of p24 antigen was; FIG. 2B (8 ng/10^6 cells) and FIG. 2C (0.8 ng/10^6 cells).
Primary human monocytes were obtained from peripheral blood by Ficoll-Hypaque centrifugation and adherence to plastic as described previously. Gartner S. P., et al., 1986, Science 233:215. […]
Virus stock and infection. […] The concentration of HIV-1 was determined by immunoassay of viral p24, concentration; using a conversion factor of 1 ng/200 HIV-1 particles. […]

[3] = molecular target: T1, recombinant MA (Human immunodeficiency virus type 1 group M subtype B, UniProt P04591); experiment: Binding of [14C]-CNI-H0294 to recombinant MA in solution (immunoprecipitation); set-up: species or system HIV-1
T1 construct: 0.28 nanomoles of recombinant MA or RT [p66/p51 ] dimer
Procedure: Twenty nmol of [^14C]-CNI-HO294 were mixed with 0.28 nmol of recombinant MA or RT (a p51/p66 heterodimer) in 40 μl of binding buffer. Samples were incubated for 2 h at 37° C. in the presence or absence of 200 nmol of unlabeled CNI-H0294. MA and RT proteins were immunoprecipitated using protein G agarose and sheep polyclonal anti-MA (αMA) or rabbit anti-RT (αRT) sera, respectively. Pre-immune sera (PI) was used as control. Bound material was eluted from protein G using 0.1 M glycine buffer [pH 2.8] and the radioactivity in the eluate was quantified in a scintillation counter.
0.28 nanomoles of recombinant MA or RT [p66/p51 ] dimer were mixed with 20 nmol of [^14C] CNI-HO294 (specific activity 5×10^4 cpm/nmol) and incubated 2 hr at room temperature in 40 μl of binding buffer (PBS supplemented with 1% BSA, 0.1% Tween 20, 1 μg/ml leupeptin, 1 μg/ml aprotinin, 1 mM PMSF). Sheep anti-MA or rabbit anti-RT sera (both obtained from NIH AIDS Research and Reference Reagent Program) or pre-immune control sera were then added (at 1:100 dilution) and incubation continued for another 1 hr at room temperature. Immune complexes were precipitated with protein G-agarose, washed, and then eluted with 0.1 M glycine, pH 2.8. Radioactivity of the eluate was measured in a scintillation counter.

SMILES	reduction in viral output ([1]; 1 and 10 μM, lower MOI, 1 ng p24/10^6 cells)	anti-viral effect in cultures of replicating cells ([1]; infected at the multiplicity of infection used to infect monocytes)	effect on viral production ([1]; up to 10 μM, higher MOI, 10 ng p24/10^6 cells)	IC50 ([2]; MOI 0.8 ng p24/10^6 cells (FIG. 2C))	IC50 ([2]; MOI 8 ng p24/10^6 cells (FIG. 2B))	binding to recombinant MA [3]
CC(=O)c1cc(Nc2cc(C)[n+](C)c(N)n2)cc(C(C)=O)c1.[I-] [Compound No. 2, 2-amino-4-(3,5-diacetylphenyl)amino-1,6-dimethylpyrimidinium iodide]	~2 fold	No anti-viral effect was detected	only a marginal effect	< 1 nM	~10 nM	
CC(=O)c1cc(Nc2cc(C)[n+](C)c(N)n2)cc(C(C)=O)c1 [CNI-0294, 2-Amino-4-(3,5-diacetylphenyl)amino-1,6-dimethylpyrimidinium chloride]						No binding was observed
